In patent US20230048678A1, “ICAN DERIVATIVES FOR ANTIFUNGAL USE” (DEBRECENI EGYETEM, priority 2019, published 2023):
Where “and” joins values, the source holds several entries; their conditions need not be identical. Equal entries are not always repeated.

Columns and labels:
C. albicans SC5314 = assay: CLSI broth microdilution susceptibility (Table 1); assay type: cell-based; settings: 48 h, 35° C.
Experimental: (§1) ICAN has 3 key moieties, namely the amino, naphthalene and isonitrile. To find out which ones of them are essential for the antifungal behavior and to design more efficient derivatives, comparative studies were carried out, where one of the moieties was exchanged or eliminated. All ICAN derivatives were tested against C. albicans SC5314, C. krusei ATCC 6258 and C. parapsilosis ATCC 22019. The antifungal agents were dissolved in 100% DMSO and diluted further in RPMI-1640 (with L-glutamine but without bicarbonate) and buffered to pH 7.0 with 0.165 M morpholinopropanesulfonic acid (MOPS). MICs were read visually after 48-h incubation at 35° C. using the partial (50%) inhibition (for ICAN derivatives) (PI) and total inhibition (for AMB and ICAN derivatives) (TI) criteria. MICs were determined at least twice.
(§2) The tested C. albicans, C. tropicalis, C. parapsilosis, C. glabrata and C. krusei ATCC strains and clinical isolates are listed in Table 2. MICs were determined according to the CLSI M27-A3 [22]. Antifungal agents were dissolved in 100% DMSO and diluted further in RPMI-1640 (with L-glutamine but without bicarbonate) (Sigma, Budapest, Hungary), and buffered to pH 7.0 with 0.165 M morpholinopropanesulfonic acid (MOPS; Sigma, Budapest, Hungary). The final concentration ranges used for AMB and ICAN derivatives were 0.125 to 4 μg/ml and 0.04 to 20 μg/ml, respectively. Yeast cell suspensions were prepared in RPMI 1640 medium and were adjusted to give a final inoculum concentration of 0.5×10^3 to 2.5×10^3 cells/ml. MICs were read visually after 48-h incubation at 35° C. using the partial (50%) inhibition (for ICAN derivatives) (PI) and total inhibition (for AMB and ICAN derivatives) (TI) criteria. MICs were determined at least twice. For amphotericin B isolates with MIC values of ≤2 mg/L were considered wild-types. [Pfaller M A, 2012]

C. krusei ATCC 6258 = assay: CLSI broth microdilution susceptibility (Table 1); assay type: cell-based; settings: 48 h, 35° C.
Experimental: as §1, §2

[1] = tested on: C. parapsilosis ATCC 22019; assay: CLSI broth microdilution susceptibility (Table 1); assay type: cell-based; settings: 48 h, 35° C.
Experimental: as §1, §2

[2] = tested on: C. albicans SC5314, C. krusei ATCC 6258 and C. parapsilosis ATCC 22019; assay: CLSI broth microdilution, MIC summarised over the three Candida test strains; assay type: cell-based; settings: value or range over the three Candida strains of Table 1, total inhibition
Experimental: as §1, §2

C. albicans isolates = assay: CLSI M27-A3 broth microdilution on Candida isolates (Table 2); assay type: cell-based
Experimental: as §2

C. glabrata isolates = assay: as above; assay type: cell-based
Experimental: as §2

C. krusei isolates = assay: as above; assay type: cell-based
Experimental: as §2

C. parapsilosis isolates = assay: as above; assay type: cell-based
Experimental: as §2

C. tropicalis isolates = assay: as above; assay type: cell-based
Experimental: as §2

human cell cultures = settings: from [Nagy M 2018, Nagy Z L; cited from earlier work

[C-]#[N+]c1cccc2c(N(C)C)cccc12 [DIMICAN, N,N-dimethyl-1-amino-5-isocyanonaphthalene]
MICPI (C. albicans SC5314; partial (50%) inhibition): ≤0.04 µg/mL
MICTI (C. albicans SC5314; total inhibition): 0.6 µg/mL
MICPI (C. krusei ATCC 6258; partial (50%) inhibition): 0.15 µg/mL
MICTI (C. krusei ATCC 6258; total inhibition): 0.3 µg/mL
MICPI ([1]; partial (50%) inhibition): 0.15 µg/mL
MICTI ([1]; total inhibition): 0.6 µg/mL
MICTI [2]: 0.6 µg/mL and 0.3 to 0.6 µg/mL
MICPI (C. albicans isolates; isolate 456): ≤0.04 µg/mL
MICTI (C. albicans isolates; isolate 456): 0.6 µg/mL
MICPI (C. albicans isolates; isolate 665): ≤0.04 µg/mL
MICTI (C. albicans isolates; isolate 665): 0.6 µg/mL
MICPI (C. albicans isolates; isolate 685): ≤0.04 µg/mL
MICTI (C. albicans isolates; isolate 685): 0.6 µg/mL
MICPI (C. albicans isolates; isolate 720): ≤0.04 µg/mL
MICTI (C. albicans isolates; isolate 720): 0.6 µg/mL
MICPI (C. albicans isolates; isolate 963): ≤0.04 µg/mL
MICTI (C. albicans isolates; isolate 963): 0.6 µg/mL
MICPI (C. albicans isolates; isolate 1544): ≤0.04 µg/mL
MICTI (C. albicans isolates; isolate 1544): 0.6 µg/mL
MICPI (C. albicans isolates; isolate 3666): ≤0.04 µg/mL
MICTI (C. albicans isolates; isolate 3666): 0.6 µg/mL
MICPI (C. albicans isolates; isolate 8658): ≤0.04 µg/mL
MICTI (C. albicans isolates; isolate 8658): 0.6 µg/mL
MICPI (C. albicans isolates; isolate ATCC 10231): ≤0.04 µg/mL
MICTI (C. albicans isolates; isolate ATCC 10231): 0.3 µg/mL
MICPI (C. glabrata isolates; isolate 14408): ≤0.04 µg/mL
MICTI (C. glabrata isolates; isolate 14408): 0.08 µg/mL
MICPI (C. glabrata isolates; isolate 14559): ≤0.04 µg/mL
MICTI (C. glabrata isolates; isolate 14559): 0.3 µg/mL
MICPI (C. glabrata isolates; isolate 22394): ≤0.04 µg/mL
MICTI (C. glabrata isolates; isolate 22394): 0.3 µg/mL
MICPI (C. glabrata isolates; isolate 23429): ≤0.04 µg/mL
MICTI (C. glabrata isolates; isolate 23429): 0.3 µg/mL
MICPI (C. glabrata isolates; isolate 23481): 0.08 µg/mL
MICTI (C. glabrata isolates; isolate 23481): 1.25 µg/mL
MICPI (C. glabrata isolates; isolate 27643): 0.08 µg/mL
MICTI (C. glabrata isolates; isolate 27643): 0.3 µg/mL
MICPI (C. glabrata isolates; isolate 28557): ≤0.04 µg/mL
MICTI (C. glabrata isolates; isolate 28557): 0.6 µg/mL
MICPI (C. glabrata isolates; isolate ATCC 90030): 0.15 µg/mL
MICTI (C. glabrata isolates; isolate ATCC 90030): 0.3 µg/mL
MICPI (C. krusei isolates; isolate 749): 0.08 µg/mL
MICTI (C. krusei isolates; isolate 749): 0.08 µg/mL
MICPI (C. krusei isolates; isolate 1853): 0.08 µg/mL
MICTI (C. krusei isolates; isolate 1853): 0.3 µg/mL
MICPI (C. krusei isolates; isolate 4364): ≤0.04 µg/mL
MICTI (C. krusei isolates; isolate 4364): 0.15 µg/mL
MICPI (C. krusei isolates; isolate 5029): ≤0.04 µg/mL
MICTI (C. krusei isolates; isolate 5029): 0.08 µg/mL
MICPI (C. krusei isolates; isolate 5072): 0.08 µg/mL
MICTI (C. krusei isolates; isolate 5072): 0.3 µg/mL
MICPI (C. krusei isolates; isolate 25504): 0.08 µg/mL
MICTI (C. krusei isolates; isolate 25504): 0.3 µg/mL
MICPI (C. krusei isolates; isolate 34987): ≤0.04 µg/mL
MICTI (C. krusei isolates; isolate 34987): 0.08 µg/mL
MICPI (C. krusei isolates; isolate ATCC 6258): 0.15 µg/mL
MICTI (C. krusei isolates; isolate ATCC 6258): 0.3 µg/mL
MICPI (C. parapsilosis isolates; isolate 4133): 0.08 µg/mL
MICTI (C. parapsilosis isolates; isolate 4133): 0.08 µg/mL
MICPI (C. parapsilosis isolates; isolate 9613): 0.15 µg/mL
MICTI (C. parapsilosis isolates; isolate 9613): 0.15 µg/mL
MICPI (C. parapsilosis isolates; isolate 10252): ≤0.04 µg/mL
MICTI (C. parapsilosis isolates; isolate 10252): 0.08 µg/mL
MICPI (C. parapsilosis isolates; isolate 18154): 0.08 µg/mL
MICTI (C. parapsilosis isolates; isolate 18154): 0.6 µg/mL
MICPI (C. parapsilosis isolates; isolate 27001): ≤0.04 µg/mL
MICTI (C. parapsilosis isolates; isolate 27001): 0.3 µg/mL
MICPI (C. parapsilosis isolates; isolate ATCC 22019): 0.15 µg/mL
MICTI (C. parapsilosis isolates; isolate ATCC 22019): 0.6 µg/mL
MICPI (C. tropicalis isolates; isolate 579): 0.08 µg/mL
MICTI (C. tropicalis isolates; isolate 579): 0.6 µg/mL
MICPI (C. tropicalis isolates; isolate 622): 0.08 µg/mL
MICTI (C. tropicalis isolates; isolate 622): 0.3 µg/mL
MICPI (C. tropicalis isolates; isolate 1776): 0.08 µg/mL
MICTI (C. tropicalis isolates; isolate 1776): 0.3 µg/mL
MICPI (C. tropicalis isolates; isolate 2467): 0.15 µg/mL
MICTI (C. tropicalis isolates; isolate 2467): 1.25 µg/mL
MICPI (C. tropicalis isolates; isolate 3014): 0.08 µg/mL
MICTI (C. tropicalis isolates; isolate 3014): 0.6 µg/mL
MICPI (C. tropicalis isolates; isolate 5115): 0.08 µg/mL
MICTI (C. tropicalis isolates; isolate 5115): 1.25 µg/mL
MICPI (C. tropicalis isolates; isolate 5806): 0.08 µg/mL
MICTI (C. tropicalis isolates; isolate 5806): 0.15 µg/mL
MICPI (C. tropicalis isolates; isolate ATCC 750): 0.15 µg/mL
MICTI (C. tropicalis isolates; isolate ATCC 750): 1.25 µg/mL
cytotoxic effect (human cell cultures): no cytotoxic effect
